{"source": "the supplement of paper PMC7029842", "assay_in_all_cases": "minimum inhibitory concentration (MIC)", "conditions_in_all_cases": "incubation time: 18 h", "key": {"[1]": {"system": "Burkholderia cepacia ISS isolate s33"}, "[2]": {"system": "Burkholderia cepacia ISS isolate s36"}, "[3]": {"system": "Burkholderia cepacia ISS isolate s20"}, "[4]": {"system": "Burkholderia cepacia ISS isolate s37"}, "[5]": {"system": "Burkholderia cepacia ISS isolate s35"}, "[6]": {"system": "Burkholderia cepacia ISS isolate s39"}, "[7]": {"system": "Burkholderia cepacia ISS isolate s16"}, "[8]": {"system": "Burkholderia cepacia ISS isolate s28"}, "[9]": {"system": "Burkholderia cepacia ISS isolate s25"}, "[10]": {"system": "Burkholderia cepacia ATCC25416"}, "[11]": {"system": "Burkholderia contaminans ISS isolate s52"}, "[12]": {"system": "Burkholderia contaminans ISS isolate s47"}, "[13]": {"system": "Burkholderia contaminans ISS isolate s54"}, "[14]": {"system": "Burkholderia cepacia ISS isolate s12"}, "[15]": {"system": "Burkholderia cepacia ISS isolate s23"}, "[16]": {"system": "Burkholderia cepacia ISS isolate s57"}, "[17]": {"system": "Burkholderia cepacia ISS isolate s22"}, "[18]": {"system": "Burkholderia cepacia ISS isolate s41"}, "[19]": {"system": "Burkholderia cepacia ISS isolate s31"}, "[20]": {"system": "Burkholderia cepacia ISS isolate s15"}, "[21]": {"system": "Burkholderia contaminans ISS isolate s56"}, "[22]": {"system": "Burkholderia cepacia ISS isolate s18"}, "[23]": {"system": "Burkholderia cepacia ISS isolate s9"}, "[24]": {"system": "Burkholderia contaminans J2956"}, "[25]": {"system": "Burkholderia contaminans ISS isolate s53"}, "[26]": {"system": "Burkholderia cepacia ISS isolate s24"}}, "note": "± gives the standard deviation of the averaged measurements.", "data": [{"smiles": "CN(C)c1ccc(O)c2c1C[C@H]1C[C@H]3[C@H](N(C)C)C(O)=C(C(N)=O)C(=O)[C@@]3(O)C(O)=C1C2=O", "note": "[minocycline]", "values": [{"measurement": "minimum inhibitory concentration", "setting": "[1]", "value": "12.7 ± 4.6", "unit": "µg/mL"}, {"measurement": "minimum inhibitory concentration", "setting": "[2]", "value": "6.35 ± 6.9", "unit": "µg/mL"}, {"measurement": "minimum inhibitory concentration", "setting": "[3]", "value": "6.35 ± 7", "unit": "µg/mL"}, {"measurement": "minimum inhibitory concentration", "setting": "[4]", "value": "6.35 ± 2.3", "unit": "µg/mL"}, {"measurement": "minimum inhibitory concentration", "setting": "[5]", "value": 8, "unit": "µg/mL"}, {"measurement": "minimum inhibitory concentration", "setting": "[6]", "value": "6.35 ± 6.9", "unit": "µg/mL"}, {"measurement": "minimum inhibitory concentration", "setting": "[7]", "value": "5.04 ± 3.5", "unit": "µg/mL"}, {"measurement": "minimum inhibitory concentration", "setting": "[8]", "value": "10.1 ± 15", "unit": "µg/mL"}, {"measurement": "minimum inhibitory concentration", "setting": "[9]", "value": "8 ± 6.1", "unit": "µg/mL"}, {"measurement": "minimum inhibitory concentration", "setting": "[10]", "value": "1.59 ± 0.58", "unit": "µg/mL"}, {"measurement": "minimum inhibitory concentration", "setting": "[11]", "value": 2, "unit": "µg/mL"}, {"measurement": "minimum inhibitory concentration", "setting": "[12]", "value": "3.17 ± 3.5", "unit": "µg/mL"}, {"measurement": "minimum inhibitory concentration", "setting": "[13]", "value": 2, "unit": "µg/mL"}, {"measurement": "minimum inhibitory concentration", "setting": "[14]", "value": "3.17 ± 1.1", "unit": "µg/mL"}, {"measurement": "minimum inhibitory concentration", "setting": "[15]", "value": "8 ± 6.1", "unit": "µg/mL"}, {"measurement": "minimum inhibitory concentration", "setting": "[16]", "value": 2, "unit": "µg/mL"}, {"measurement": "minimum inhibitory concentration", "setting": "[17]", "value": "6.35 ± 2.3", "unit": "µg/mL"}, {"measurement": "minimum inhibitory concentration", "setting": "[18]", "value": "8 ± 6.1", "unit": "µg/mL"}, {"measurement": "minimum inhibitory concentration", "setting": "[19]", "value": 4, "unit": "µg/mL"}, {"measurement": "minimum inhibitory concentration", "setting": "[20]", "value": "12.7 ± 4.6", "unit": "µg/mL"}, {"measurement": "minimum inhibitory concentration", "setting": "[21]", "value": "2.52 ± 1.1", "unit": "µg/mL"}, {"measurement": "minimum inhibitory concentration", "setting": "[22]", "value": "6.35 ± 7", "unit": "µg/mL"}, {"measurement": "minimum inhibitory concentration", "setting": "[23]", "value": "6.35 ± 6.9", "unit": "µg/mL"}, {"measurement": "minimum inhibitory concentration", "setting": "[24]", "value": 2, "unit": "µg/mL"}, {"measurement": "minimum inhibitory concentration", "setting": "[25]", "value": 2, "unit": "µg/mL"}, {"measurement": "minimum inhibitory concentration", "setting": "[26]", "value": "12.7 ± 14", "unit": "µg/mL"}]}, {"smiles": "O=C(N[C@H](CO)[C@H](O)c1ccc([N+](=O)[O-])cc1)C(Cl)Cl", "note": "[chloramphenicol]", "values": [{"measurement": "minimum inhibitory concentration", "setting": "[1]", "value": "5.04 ± 2.3", "unit": "µg/mL"}, {"measurement": "minimum inhibitory concentration", "setting": "[2]", "value": "8 ± 16", "unit": "µg/mL"}, {"measurement": "minimum inhibitory concentration", "setting": "[3]", "value": "11.7 ± 9.8", "unit": "µg/mL"}, {"measurement": "minimum inhibitory concentration", "setting": "[4]", "value": "5.04 ± 3.5", "unit": "µg/mL"}, {"measurement": "minimum inhibitory concentration", "setting": "[5]", "value": "5.04 ± 2.3", "unit": "µg/mL"}, {"measurement": "minimum inhibitory concentration", "setting": "[6]", "value": "4 ± 3.1", "unit": "µg/mL"}, {"measurement": "minimum inhibitory concentration", "setting": "[7]", "value": "9.28 ± 2.6", "unit": "µg/mL"}, {"measurement": "minimum inhibitory concentration", "setting": "[8]", "value": "5.85 ± 4.9", "unit": "µg/mL"}, {"measurement": "minimum inhibitory concentration", "setting": "[9]", "value": "5.85 ± 4.9", "unit": "µg/mL"}, {"measurement": "minimum inhibitory concentration", "setting": "[10]", "value": "6.35 ± 2.3", "unit": "µg/mL"}, {"measurement": "minimum inhibitory concentration", "setting": "[11]", "value": 8, "unit": "µg/mL"}, {"measurement": "minimum inhibitory concentration", "setting": "[12]", "value": "5.04 ± 2.3", "unit": "µg/mL"}, {"measurement": "minimum inhibitory concentration", "setting": "[13]", "value": 8, "unit": "µg/mL"}, {"measurement": "minimum inhibitory concentration", "setting": "[14]", "value": "7.37 ± 4.2", "unit": "µg/mL"}, {"measurement": "minimum inhibitory concentration", "setting": "[16]", "value": 8, "unit": "µg/mL"}, {"measurement": "minimum inhibitory concentration", "setting": "[17]", "value": "7.37 ± 12", "unit": "µg/mL"}, {"measurement": "minimum inhibitory concentration", "setting": "[18]", "value": "4 ± 3.1", "unit": "µg/mL"}, {"measurement": "minimum inhibitory concentration", "setting": "[19]", "value": "5.85 ± 4.9", "unit": "µg/mL"}, {"measurement": "minimum inhibitory concentration", "setting": "[20]", "value": "5.04 ± 2.3", "unit": "µg/mL"}, {"measurement": "minimum inhibitory concentration", "setting": "[21]", "value": "6.35 ± 2.3", "unit": "µg/mL"}, {"measurement": "minimum inhibitory concentration", "setting": "[22]", "value": "9.28 ± 2.6", "unit": "µg/mL"}, {"measurement": "minimum inhibitory concentration", "setting": "[23]", "value": "4.64 ± 5.6", "unit": "µg/mL"}, {"measurement": "minimum inhibitory concentration", "setting": "[24]", "value": 8, "unit": "µg/mL"}, {"measurement": "minimum inhibitory concentration", "setting": "[25]", "value": 8, "unit": "µg/mL"}, {"measurement": "minimum inhibitory concentration", "setting": "[26]", "value": "9.28 ± 11", "unit": "µg/mL"}]}, {"smiles": "CC(C)(O/N=C(\\C(=O)N[C@@H]1C(=O)N2C(C(=O)[O-])=C(C[n+]3ccccc3)CS[C@H]12)c1csc(N)n1)C(=O)O", "note": "[ceftazidime]", "values": [{"measurement": "minimum inhibitory concentration", "setting": "[1]", "value": 4, "unit": "µg/mL"}, {"measurement": "minimum inhibitory concentration", "setting": "[2]", "value": 4, "unit": "µg/mL"}, {"measurement": "minimum inhibitory concentration", "setting": "[3]", "value": 4, "unit": "µg/mL"}, {"measurement": "minimum inhibitory concentration", "setting": "[4]", "value": "2 ± 2", "unit": "µg/mL"}, {"measurement": "minimum inhibitory concentration", "setting": "[5]", "value": "3.17 ± 1.1", "unit": "µg/mL"}, {"measurement": "minimum inhibitory concentration", "setting": "[6]", "value": "3.17 ± 1.1", "unit": "µg/mL"}, {"measurement": "minimum inhibitory concentration", "setting": "[7]", "value": 4, "unit": "µg/mL"}, {"measurement": "minimum inhibitory concentration", "setting": "[8]", "value": 4, "unit": "µg/mL"}, {"measurement": "minimum inhibitory concentration", "setting": "[9]", "value": 4, "unit": "µg/mL"}, {"measurement": "minimum inhibitory concentration", "setting": "[10]", "value": "12.7 ± 4.6", "unit": "µg/mL"}, {"measurement": "minimum inhibitory concentration", "setting": "[11]", "value": 8, "unit": "µg/mL"}, {"measurement": "minimum inhibitory concentration", "setting": "[12]", "value": 8, "unit": "µg/mL"}, {"measurement": "minimum inhibitory concentration", "setting": "[13]", "value": 8, "unit": "µg/mL"}, {"measurement": "minimum inhibitory concentration", "setting": "[14]", "value": 4, "unit": "µg/mL"}, {"measurement": "minimum inhibitory concentration", "setting": "[15]", "value": 4, "unit": "µg/mL"}, {"measurement": "minimum inhibitory concentration", "setting": "[16]", "value": "3.17 ± 1.1", "unit": "µg/mL"}, {"measurement": "minimum inhibitory concentration", "setting": "[17]", "value": 4, "unit": "µg/mL"}, {"measurement": "minimum inhibitory concentration", "setting": "[18]", "value": "3.17 ± 1.1", "unit": "µg/mL"}, {"measurement": "minimum inhibitory concentration", "setting": "[19]", "value": 4, "unit": "µg/mL"}, {"measurement": "minimum inhibitory concentration", "setting": "[20]", "value": "4.58 ± 1.1", "unit": "µg/mL"}, {"measurement": "minimum inhibitory concentration", "setting": "[21]", "value": 8, "unit": "µg/mL"}, {"measurement": "minimum inhibitory concentration", "setting": "[22]", "value": 4, "unit": "µg/mL"}, {"measurement": "minimum inhibitory concentration", "setting": "[23]", "value": 4, "unit": "µg/mL"}, {"measurement": "minimum inhibitory concentration", "setting": "[24]", "value": 8, "unit": "µg/mL"}, {"measurement": "minimum inhibitory concentration", "setting": "[25]", "value": 8, "unit": "µg/mL"}, {"measurement": "minimum inhibitory concentration", "setting": "[26]", "value": 4, "unit": "µg/mL"}]}]}
